{"source": "patent US20200405697A1", "about": "“Antitumor Agent” (Taiho Pharmaceutical Co., Ltd, priority 2017, published 2020)", "key": {"[1]": {"target": "T1, human RNR (histidine tagged human M1 and human M2 proteins) (Homo sapiens, UniProt P23921)", "T1 construct": "made in house; host or cells: Escherichia coli", "T1 sequence (P23921 1-792)": "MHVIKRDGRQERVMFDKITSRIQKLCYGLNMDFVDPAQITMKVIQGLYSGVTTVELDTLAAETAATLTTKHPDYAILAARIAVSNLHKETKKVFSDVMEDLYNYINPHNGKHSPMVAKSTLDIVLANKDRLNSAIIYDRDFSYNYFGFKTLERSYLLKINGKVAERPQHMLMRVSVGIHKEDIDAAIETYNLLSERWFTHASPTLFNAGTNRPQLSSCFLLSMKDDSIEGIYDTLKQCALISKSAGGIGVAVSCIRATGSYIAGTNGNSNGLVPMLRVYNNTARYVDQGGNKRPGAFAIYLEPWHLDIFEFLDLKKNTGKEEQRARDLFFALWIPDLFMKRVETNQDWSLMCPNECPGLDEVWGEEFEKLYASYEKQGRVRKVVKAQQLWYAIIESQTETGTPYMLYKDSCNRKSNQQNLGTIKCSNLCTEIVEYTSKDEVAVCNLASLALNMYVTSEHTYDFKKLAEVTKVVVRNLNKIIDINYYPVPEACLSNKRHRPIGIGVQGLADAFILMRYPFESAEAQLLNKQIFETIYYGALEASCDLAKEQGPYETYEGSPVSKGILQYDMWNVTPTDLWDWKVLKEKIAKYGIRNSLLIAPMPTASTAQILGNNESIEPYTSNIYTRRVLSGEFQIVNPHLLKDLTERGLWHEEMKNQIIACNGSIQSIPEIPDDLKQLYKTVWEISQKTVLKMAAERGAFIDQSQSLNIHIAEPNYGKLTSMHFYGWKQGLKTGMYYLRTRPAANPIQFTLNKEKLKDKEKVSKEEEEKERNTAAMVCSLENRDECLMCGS", "assay": "Human RNR inhibition effect (dCDP formation from CDP)", "format": "biochemical", "settings": "10 μM CDP, 37° C. for 30 minutes, read-out: RNR inhibitory activity IC50", "method_in_brief": "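His-tagged human M1 (isoform 1) and N-terminal 59-aa-truncated M2 (isoform 2), E. coli-expressed, Ni-purified, preincubated 20 min with compound (1% DMSO). Reaction with 10 μM CDP, 2 mM ATP, 0.24 mM NADPH, 6 mM DTT, 4 mM Mg acetate, 100 mM KCl, 50 mM HEPES pH 7.2, 30 min at 37° C. dCDP formed quantified by reverse-phase HPLC after heat stop.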"}, "[2]": {"tested_on": "MV-4-11 (Human blood cancer cell line)", "assay": "Effect of combination of sulfonamide compound and other antitumor agent (CellTiter-Glo, combination index): MV-4-11", "procedure": "Each cell line was seeded at 90 L/well to a 96-well culture plate (Thermo Fisher Scientific, Inc.) according to the above tables. The cell-seeded plate was cultured in an incubator set to 37° C. and 500 CO2. On the day following seeding, varying concentrations of the sulfonamide compound and the other antitumor agent were added in combination to the cells. […] The serial dilutions of each compound, or DW was added at 5μL/well to the plate such that each compound and DW, or the sulfonamide compound and the other antitumor agent were combined. […] The plate after the addition was cultured at 37° C. for 3 days under 5% CO2 conditions.\nThree days later, CellTiter-Glo(R) 2.0 Reagent (Promega Corporation) was added at 100 μL/well, and the amount of luminescence was measured using a plate reader EnSpire(R) Multimode Plate Reader (PerkinElmer Co., Ltd.).\nAn average value from 3 wells was calculated as to each drug condition from the obtained data, and cell survival rate normalized against control wells supplemented with the vehicle (DW) was calculated. A Fa (fractional inhibition) value was calculated by subtracting the cell survival rate from 1."}, "[3]": {"settings": "Example Compound 1 121 nM + Cytarabine 116 nM, molar ratio 1:0.9614"}, "[4]": {"settings": "Example Compound 1 121 nM + Guadecitabine 11.9 nM, molar ratio 1:0.09807"}, "[5]": {"settings": "Example Compound 1 182 nM + Cytarabine 175 nM, molar ratio 1:0.9614"}, "[6]": {"settings": "Example Compound 1 182 nM + Decitabine 50.2 nM, molar ratio 1:0.2758"}, "[7]": {"settings": "Example Compound 1 182 nM + Fludarabine nucleoside 4110 nM, molar ratio 1:22.56"}, "[8]": {"settings": "Example Compound 1 182 nM + Guadecitabine 17.8 nM, molar ratio 1:0.09807"}, "[9]": {"settings": "Example Compound 1 273 nM + Decitabine 75.3 nM, molar ratio 1:0.2758"}, "[10]": {"settings": "Example Compound 1 273 nM + Fludarabine nucleoside 6160 nM, molar ratio 1:22.56"}, "[11]": {"settings": "Example Compound 1 273 nM + Guadecitabine 26.8 nM, molar ratio 1:0.09807"}, "[12]": {"settings": "Example Compound 1 409 nM + Cytarabine 393 nM, molar ratio 1:0.9614"}, "[13]": {"settings": "Example Compound 1 409 nM + Decitabine 113 nM, molar ratio 1:0.2758"}, "[14]": {"settings": "Example Compound 1 409 nM + Guadecitabine 40.1 nM, molar ratio 1:0.09807"}, "[15]": {"settings": "Example Compound 1 613 nM + Decitabine 169 nM, molar ratio 1:0.2758"}, "[16]": {"settings": "Example Compound 1 613 nM + Decitabine 589 nM, molar ratio 1:0.2758"}, "[17]": {"settings": "Example Compound 1 613 nM + Guadecitabine 60.1 nM, molar ratio 1:0.09807"}, "[18]": {"settings": "Example Compound 1 920 nM + Decitabine 254 nM, molar ratio 1:0.2758"}, "[19]": {"settings": "Example Compound 1 920 nM + Guadecitabine […], molar ratio 1:0.09807"}}, "note": "pIC50: −log10 of the molar value."}
{"smiles": "Cc1ccc(F)c([C@@H](C)[C@H](NS(=O)(=O)c2ccc(Br)cc2C(N)=O)c2n[nH]c(=O)o2)c1C", "note": "[Example 1, 5-bromo-2-(N-((1 S,2R)-2-(6-fluoro-2,3-dimethylphenyl)-1-(5-oxo-4,5-dihydro-1,3,4-oxadiazol-2-yl)propyl)sulfamoyl)benzamide]", "values": [{"measurement": "pIC50", "setting": "[1]", "value": 7.22}, {"measurement": "CI value", "setting": "[2]; [3]", "value": 0.683}, {"measurement": "Fa value", "setting": "[2]; [3]", "value": 0.1611}, {"measurement": "CI value", "setting": "[2]; [4]", "value": 0.706}, {"measurement": "Fa value", "setting": "[2]; [4]", "value": 0.2186}, {"measurement": "CI value", "setting": "[2]; [5]", "value": 0.603}, {"measurement": "Fa value", "setting": "[2]; [5]", "value": 0.4508}, {"measurement": "CI value", "setting": "[2]; [6]", "value": 0.643}, {"measurement": "Fa value", "setting": "[2]; [6]", "value": 0.3873}, {"measurement": "CI value", "setting": "[2]; [7]", "value": 0.783}, {"measurement": "Fa value", "setting": "[2]; [7]", "value": 0.1868}, {"measurement": "CI value", "setting": "[2]; [8]", "value": 0.741}, {"measurement": "Fa value", "setting": "[2]; [8]", "value": 0.3225}, {"measurement": "CI value", "setting": "[2]; [9]", "value": 0.680}, {"measurement": "Fa value", "setting": "[2]; [9]", "value": 0.5342}, {"measurement": "CI value", "setting": "[2]; [10]", "value": 0.592}, {"measurement": "Fa value", "setting": "[2]; [10]", "value": 0.8795}, {"measurement": "CI value", "setting": "[2]; [11]", "value": 0.705}, {"measurement": "Fa value", "setting": "[2]; [11]", "value": 0.5192}, {"measurement": "CI value", "setting": "[2]; [12]", "value": 0.538}, {"measurement": "Fa value", "setting": "[2]; [12]", "value": 0.9443}, {"measurement": "CI value", "setting": "[2]; [13]", "value": 0.667}, {"measurement": "Fa value", "setting": "[2]; [13]", "value": 0.7570}, {"measurement": "CI value", "setting": "[2]; [14]", "value": 0.658}, {"measurement": "Fa value", "setting": "[2]; [14]", "value": 0.7788}, {"measurement": "CI value", "setting": "[2]; [15]", "value": 0.672}, {"measurement": "Fa value", "setting": "[2]; [15]", "value": 0.9292}, {"measurement": "CI value", "setting": "[2]; [16]", "value": 0.419}, {"measurement": "Fa value", "setting": "[2]; [16]", "value": 0.9960}, {"measurement": "CI value", "setting": "[2]; [17]", "value": 0.671}, {"measurement": "Fa value", "setting": "[2]; [17]", "value": 0.9347}, {"measurement": "CI value", "setting": "[2]; [18]", "value": 0.666}, {"measurement": "Fa value", "setting": "[2]; [18]", "value": 0.9900}, {"measurement": "CI value", "setting": "[2]; [19]", "value": 0.639}, {"measurement": "Fa value", "setting": "[2]; [19]", "value": 0.9921}]}
